# US9975849B1, “Gossypol l-arginine schiff base compound with antitumor activities and a method of preparing the same” (SHAANXI PANLONG PHARMACEUTICAL GROUP LIMITED BY SHARE LTD., priority 2017, dated 2018)
# Where two headings read alike, the source gives them in different places.
# Tests used:
# Type in all cases: cell-based
# [1] = system: human hepatoma cells (HepG2); test: MTT tumor cell proliferation inhibition test, HepG2; settings: for IC50: Homo sapiens, read-out: Half Inhibitory Concentration IC50 HepG2
# Method: (§1) The compounds of the present invention were subjected to tumor cell proliferation inhibition test, and conventional MTT method was used.
# (§2) Cell lines: human hepatoma cells (HepG2), human lung cancer cells (A-549), human gastric cancer cells (SGC-7901). The culture medium was DMEM+15% NBS+double antibody.
# (§3) Sample solution preparation: after dissolving with DMSO (Merck), PBS (-) was added to obtain 100 μmol/L solution or homogeneous suspension. The solution was diluted with PBS (-) in DMSO to a final concentration of 0.1, 1, 10, 20, 40, 60, 80, 100 μmol/L.
# (§4) Anti-uterine fibroids drug gossypol was used as control solution, prepared under the same condition.
# (§5) Cell culture: adherent growth Tumor cells were cultured in 1640 medium containing 10% inactivated neonatal bovine serum and penicillin, streptomycin (1 million U/L), placed in carbon dioxide incubator at 37° C., 5% CO2, and saturated humidity. Cells were treated serially passaged 2-3 times. The first culture was washed with PBS 2 times, and digested with trypsin. Fresh culture medium was added evenly, cells were adjusted to a appropriate concentration and transferred into a new culture flask. […]
# (§6) Experimental Principle: Living cells mitochondria in the dehydrogenase can reduce yellow MTT to water-insoluble blue-violet product MT (MTT formazan), deposited in the cells. […] DMSO can dissolve blue violet crystals, and the color depth is proportional to the amount contained, so the absorbance measured by the microplate reader can reflect the cell viability.
# (§7) Methods: The exponential phase cells were digested and counted and seeded in 96-well plates at a density of 2×10^4/mL at 100 μl per well. […] After 48 hours, the supernatant was discarded, and 100 μl of MTT ((2-(4,5-dimethyl-2-thiazolyl)-3,5-diphenyl-2H-[…]) (1 mg/mL) was added to each well. After another 4 hours, the supernatant was discarded, and 100 μl of DMSO was added to each well. After mixing, the absorbance was measured at 570 nm using a microplate reader. An IC50 calculation software was used to determine the half inhibitory concentration (IC50).
# [2] = system: human gastric cancer cells (SGC-7901); test: MTT tumor cell proliferation inhibition test, SGC-7901; settings: for IC50: Homo sapiens, read-out: Half Inhibitory Concentration IC50 SGC-7901
# Method: as §1, §2, §3, §4
# Cell culture: adherent growth Tumor cells were cultured in 1640 medium containing 10% inactivated neonatal bovine serum and penicillin, streptomycin (1 million U/L), placed in carbon dioxide incubator at 37° C., 5% CO2, and saturated humidity. Cells were treated serially passaged 2-3 times. The first culture was washed with PBS 2 times, and digested with trypsin. Fresh culture medium was added evenly, cells were adjusted to a appropriate concentration and transferred into a new culture flask. Cell in an exponential phase were chosen for the tests.
# MTT Assay for Cell Viability and IC50 Determination:
# Experimental Principle: Living cells mitochondria in the dehydrogenase can reduce yellow MTT to water-insoluble blue-violet product MT (MTT formazan), deposited in the cells. The amount of production is proportional to the number of living cells. […] DMSO can dissolve blue violet crystals, and the color depth is proportional to the amount contained, so the absorbance measured by the microplate reader can reflect the cell viability.
# Methods: The exponential phase cells were digested and counted and seeded in 96-well plates at a density of 2×10^4/mL at 100 μl per well. After 24 hours of incubation, the cells to be tested were treated with 0.1, 1, 10, 20, 40, 60, 80, 100 μmol/L of the compounds. Each experimental group had 5 wells in each concentration, and the culture medium containing 0.4% DMSO was used as control. After 48 hours, the supernatant was discarded, and 100 μl of MTT ((2-(4,5-dimethyl-2-thiazolyl)-3,5-diphenyl-2H-[…]) (1 mg/mL) was added to each well. After another 4 hours, the supernatant was discarded, and 100 μl of DMSO was added to each well. After mixing, the absorbance was measured at 570 nm using a microplate reader. An IC50 calculation software was used to determine the half inhibitory concentration (IC50).
# [3] = system: human lung cancer cells (A-549); test: MTT tumor cell proliferation inhibition test, A-549
# Method: as §1, §2, §3, §4, §5, §6, §7
"IC50 ([1]; MTT, 48 hours treatment, HepG2)","IC50 ([2]; MTT, 48 hours treatment, SGC-7901)","IC50 ([3]; Homo sapiens, MTT, 48 hours treatment, A549, read-out: Half Inhibitory Concentration IC50 A549)",SMILES,"IC50 ([1]; HepG2, 48 h)","IC50 ([2]; SGC-7901, 48 h)","antitumor activities (in words) ([1]; HepG2, one of the three cell lines tested)","antitumor activities (in words) ([2]; SGC-7901, one of the three cell lines tested)",antitumor activities compared with gossypol ([2]; against SCG-7901),"antitumor activities (in words) ([3]; A549, one of the three cell lines tested)",antitumor activities compared with gossypol ([3]; against A549)
,,,"Cc1cc2c(C(C)C)c(O)c(O)c(C=O)c2c(O)c1-c1c(C)cc2c(C(C)C)c(O)c(O)c(C=O)c2c1O [Gossypol, gossypol]",8.29 ± 0.28 µM,18.2 ± 0.37 µM,,,,,
11.7 ± 0.32 µM,9.37 ± 0.36 µM,12.3 ± 0.69 µM,"Cc1cc2c(C(C)C)c(O)c(O)c(/C=N\C(=N)NCCC[C@H](N)C(=O)O)c2c(O)c1-c1c(C)cc2c(C(C)C)c(O)c(O)c(/C=N/C(=N)NCCC[C@H](N)C(=O)O)c2c1O [Gossypol L-arginine Schiff base compound, gossypol L-arginine Schiff base compound]",,,excellent antitumor activities,excellent antitumor activities,better antitumor activities than gossypol,excellent antitumor activities,better antitumor activities than gossypol
